According to the OligoGym collection:
HELM strings list units from the 5' end as sugar, base in round brackets, then linkage (d deoxyribose, r ribose, m 2'-O-methyl, p phosphodiester). Strings are as the collection lists them, not checked against the first reports. ss, as = sense and antisense strand; [lna] = locked nucleic acid (LNA); [una] = unlocked nucleic acid; [hna] = hexitol nucleic acid; [s4r] = 4'-thioribose; [fl2r] = 2'-fluoro

Details: siRNA
Note: test system not given here.

Compared with “RNA1{r(C)p.r(U)p.r(U)p.r(A)p.r(C)p.r(G)p.r(C)p.r(U)p.r(G)p.r(A)p.r(G)p.r(U)p.r(A)p.r(C)p.r(U)p.r(U)p.r(C)p.r(G)p.r(A)p.r(T)p.r(T)}|RNA2{r(U)p.r(C)p.r(G)p.r(A)p.r(A)p.r(G)p.r(U)p.r(A)p.[lna](C)p.r(U)p.r(C)p.r(A)p.r(G)p.r(C)p.r(G)p.r(U)p.r(A)p.r(A)p.r(G)p.r(T)p.r(T)}$$$RNA1{StrandType:ss}|RNA2{StrandType:as}$”, “RNA1{m(U)p.r(G)p.r(A)p.r(A)p.r(C)p.r(G)p.r(U)p.m(C)p.r(A)p.r(C)p.r(C)p.r(G)p.r(A)p.r(G)p.r(G)p.r(A)p.r(G)p.r(A)p.r(A)p.r(T)p.r(T)}|RNA2{r(U)p.r(U)p.r(C)p.r(U)p.r(C)p.r(C)p.r(U)p.r(C)p.r(G)p.r(G)p.m(U)p.r(G)p.r(A)p.r(C)p.r(G)p.r(U)p.r(U)p.m(C)p.r(A)p.r(T)p.r(T)}$$$RNA1{StrandType:ss}|RNA2{StrandType:as}$” is lower in target mRNA knockdown: 85% for the first, 82% for the second.

Compared with “RNA1{m(C)p.r(G)p.m(C)p.r(C)p.m(C)p.r(C)p.m(C)p.r(C)p.m(U)p.r(C)p.m(A)p.r(A)p.m(G)p.r(C)p.m(U)p.r(A)p.m(C)p.r(C)p.m(G)p.r(T)p.r(T)}|RNA2{r(C)p.r(G)p.r(G)p.r(U)p.r(A)p.r(G)p.r(C)p.r(U)p.r(U)p.r(G)p.r(A)p.r(G)p.r(G)p.r(G)p.r(G)p.r(G)p.r(G)p.r(C)p.r(G)p.r(T)p.r(T)}$$$RNA1{StrandType:ss}|RNA2{StrandType:as}$”, “RNA1{[fl2r](A)p.r(G)p.[fl2r](A)p.r(A)p.[fl2r](G)p.r(U)p.[fl2r](A)p.r(C)p.[fl2r](C)p.r(A)p.[fl2r](G)p.r(G)p.[fl2r](A)p.r(G)p.[fl2r](G)p.r(C)p.[fl2r](G)p.r(U)p.[fl2r](U)p.r(T)p.r(T)}|RNA2{r(A)p.r(A)p.r(C)p.[fl2r](G)p.r(C)p.r(C)p.r(U)p.r(C)p.r(C)p.r(U)p.[fl2r](G)p.[fl2r](G)p.r(U)p.r(A)p.r(C)p.r(U)p.r(U)p.r(C)p.r(U)p.r(T)p.r(T)}$$$RNA1{StrandType:ss}|RNA2{StrandType:as}$” is lower in target mRNA knockdown: 44% for the first, 39% for the second.

First: RNA1{r(C)p.r(C)p.r(C)p.r(C)p.r(A)p.r(G)p.r(G)p.m(U)p.r(A)p.r(A)p.r(C)p.r(G)p.r(A)p.r(U)p.r(U)p.r(U)p.r(U)p.r(C)p.r(U)p.r(T)p.r(T)}|RNA2{r(A)p.r(G)p.r(A)p.r(A)p.r(A)p.r(A)p.r(U)p.r(C)p.r(G)p.r(U)p.m(U)p.r(A)p.r(C)p.r(C)p.r(U)p.r(G)p.r(G)p.r(G)p.r(G)p.r(T)p.r(T)}$$$RNA1{StrandType:ss}|RNA2{StrandType:as}$
Second: RNA1{r(G)p.r(A)p.r(C)p.r(C)p.r(A)p.r(C)p.r(G)p.r(A)p.r(A)p.r(G)p.r(A)p.r(G)p.r(U)p.[fl2r](U)p.r(A)p.r(A)p.r(C)p.r(C)p.r(C)p.r(T)p.r(T)}|RNA2{r(G)p.r(G)p.r(G)p.r(U)p.[fl2r](U)p.r(A)p.r(A)p.r(C)p.r(U)p.r(C)p.r(U)p.r(U)p.r(C)p.r(G)p.r(U)p.r(G)p.r(G)p.r(U)p.r(C)p.r(T)p.r(T)}$$$RNA1{StrandType:ss}|RNA2{StrandType:as}$
The target mRNA knockdown of the first is lower: 70% for the first, 82% for the second.

First: RNA1{r(G)p.r(G)p.r(A)p.r(C)p.r(A)p.r(U)p.r(U)p.r(C)p.r(A)p.r(G)p.r(A)p.r(A)p.r(C)p.r(A)p.r(A)p.r(G)p.r(A)p.r(A)p.r(A)p.[una](U)p.[una](U)}|RNA2{r(U)p.[una](U)p.r(U)p.r(C)p.r(U)p.r(U)p.r(G)p.r(U)p.r(U)p.r(C)p.r(U)p.r(G)p.r(A)p.r(A)p.r(U)p.r(G)p.r(U)p.r(C)p.r(C)p.[una](U)p.[una](U)}$$$RNA1{StrandType:ss}|RNA2{StrandType:as}$
Second: RNA1{r(C)p.r(U)p.[fl2r](A)p.[fl2r](A)p.r(G)p.r(C)p.r(C)p.r(U)p.r(G)p.[fl2r](U)p.r(U)p.r(U)p.r(C)p.r(U)p.r(U)p.r(C)p.r(C)p.r(U)p.r(C)p.r(T)p.r(T)}|RNA2{r(G)p.r(A)p.r(G)p.r(G)p.r(A)p.r(A)p.r(G)p.r(A)p.r(A)p.r(A)p.r(C)p.r(A)p.r(G)p.r(G)p.r(C)p.r(U)p.[fl2r](U)p.r(A)p.r(G)p.r(T)p.r(T)}$$$RNA1{StrandType:ss}|RNA2{StrandType:as}$
The target mRNA knockdown of the first is lower: 36% for the first, 85% for the second.

Going from “RNA1{r(C)p.r(G)p.r(U)p.r(A)p.r(C)p.r(G)p.r(C)p.r(G)p.r(G)p.r(A)p.r(A)p.r(U)p.r(A)p.r(C)p.r(U)p.r(U)p.r(C)p.r(G)p.r(A)p.r(T)p.r(T)}|RNA2{r(U)p.[s4r](C)p.r(G)p.r(A)p.r(A)p.r(G)p.r(U)p.r(A)p.r(U)p.r(U)p.[s4r](C)p.[s4r](C)p.r(G)p.[s4r](C)p.r(G)p.r(U)p.r(A)p.[s4r](C)p.r(G)p.r(T)p.r(T)}$$$RNA1{StrandType:ss}|RNA2{StrandType:as}$” to “RNA1{r(A)p.r(A)p.r(A)p.r(C)p.r(G)p.r(A)p.m(G)p.r(A)p.r(G)p.r(A)p.r(G)p.r(C)p.r(C)p.m(C)p.r(A)p.r(C)p.r(C)p.r(U)p.r(U)p.r(T)p.r(T)}|RNA2{r(A)p.r(A)p.r(G)p.r(G)p.m(U)p.m(G)p.r(G)p.r(G)p.r(C)p.r(U)p.r(C)p.r(U)p.r(C)p.r(U)p.r(C)p.r(G)p.r(U)p.r(U)p.r(U)p.r(T)p.r(T)}$$$RNA1{StrandType:ss}|RNA2{StrandType:as}$”, the target mRNA knockdown falls from 68.5% to 56%.

Going from “RNA1{r(G)p.r(A)p.r(C)p.r(G)p.[hna](U)p.r(A)p.r(A)p.[hna](A)p.r(C)p.r(G)p.[hna](G)p.r(C)p.r(C)p.[hna](A)p.r(C)p.r(A)p.r(A)p.r(G)p.r(U)p.[hna](U)p.d(T)}|RNA2{[fl2r](A)p.m(C)p.[fl2r](U)p.m(U)p.[fl2r](G)p.m(U)p.[fl2r](G)p.m(G)p.[fl2r](C)p.m(C)p.[fl2r](G)p.m(U)p.[fl2r](U)p.m(U)p.[fl2r](A)p.m(C)p.[fl2r](G)p.m(U)p.[fl2r](C)p.m(G)p.[fl2r](C)}$$$RNA1{StrandType:ss}|RNA2{StrandType:as}$” to “RNA1{r(C)p.m(U)p.m(A)p.r(C)p.r(C)p.r(U)p.r(U)p.r(C)p.r(U)p.r(C)p.r(C)p.r(U)p.r(C)p.r(U)p.r(U)p.r(C)p.r(U)p.r(C)p.r(C)p.r(T)p.r(T)}|RNA2{r(G)p.r(G)p.r(A)p.r(G)p.r(A)p.r(A)p.r(G)p.r(A)p.r(G)p.r(G)p.r(A)p.r(G)p.r(A)p.r(A)p.r(G)p.r(G)p.m(U)p.m(A)p.r(G)p.r(T)p.r(T)}$$$RNA1{StrandType:ss}|RNA2{StrandType:as}$”, the target mRNA knockdown rises from 13.2% to 68%.

Compared with “RNA1{r(G)p.r(A)p.r(A)p.r(G)p.r(A)p.[fl2r](U)p.r(A)p.r(G)p.r(G)p.r(A)p.r(A)p.r(G)p.r(G)p.r(G)p.r(G)p.r(C)p.r(U)p.r(U)p.r(C)p.r(T)p.r(T)}|RNA2{r(G)p.r(A)p.r(A)p.r(G)p.r(C)p.r(C)p.r(C)p.r(C)p.r(U)p.r(U)p.r(C)p.r(C)p.[fl2r](U)p.r(A)p.r(U)p.r(C)p.r(U)p.r(U)p.r(C)p.r(T)p.r(T)}$$$RNA1{StrandType:ss}|RNA2{StrandType:as}$”, “RNA1{[lna](G)p.r(G)p.r(C)p.r(C)p.r(U)p.r(U)p.r(U)p.r(C)p.r(A)p.r(C)p.r(U)p.r(A)p.r(C)p.r(U)p.r(C)p.r(C)p.r(U)p.r(A)p.r(C)p.r(G)p.r(A)}|RNA2{r(G)p.r(U)p.r(A)p.r(G)p.r(G)p.r(A)p.r(G)p.r(U)p.r(A)p.r(G)p.r(U)p.r(G)p.r(A)p.r(A)p.r(A)p.r(G)p.r(G)p.r(C)p.r(C)p.r(A)p.r(G)}$$$RNA1{StrandType:ss}|RNA2{StrandType:as}$” is higher in target mRNA knockdown: 56% for the first, 86% for the second.

Compared with “RNA1{r(C)p.r(U)p.r(U)p.r(A)p.r(C)p.r(G)p.r(C)p.r(U)p.r(G)p.r(A)p.r(G)p.r(U)p.r(A)p.r(C)p.r(U)p.r(U)p.r(C)p.r(G)p.r(A)p.r(T)p.r(T)}|RNA2{r(U)p.r(C)p.r(G)p.r(A)p.r(A)p.r(G)p.[lna](U)p.r(A)p.r(C)p.r(U)p.r(C)p.r(A)p.r(G)p.r(C)p.r(G)p.r(U)p.r(A)p.r(A)p.r(G)p.r(T)p.r(T)}$$$RNA1{StrandType:ss}|RNA2{StrandType:as}$”, “RNA1{r(G)p.r(A)p.r(C)p.r(G)p.r(U)p.r(A)p.r(A)p.r(A)p.r(C)p.r(G)p.r(G)p.r(C)p.r(C)p.r(A)p.r(C)p.r(A)p.r(A)p.r(G)p.r(U)p.[lna](T)p.[lna](C)}|RNA2{r(A)p.r(C)p.r(U)p.r(U)p.r(G)p.r(U)p.r(G)p.r(G)p.r(C)p.r(C)p.r(G)p.r(U)p.r(U)p.r(U)p.r(A)p.r(C)p.r(G)p.r(U)p.r(C)p.r(G)p.r(C)}$$$RNA1{StrandType:ss}|RNA2{StrandType:as}$” is higher in target mRNA knockdown: 81% for the first, 87.4% for the second.

Compared with “RNA1{r(A)p.r(G)p.r(C)p.r(G)p.r(A)p.r(U)p.r(C)p.r(C)p.r(C)p.r(G)p.r(A)p.r(A)p.r(C)p.r(A)p.r(A)p.r(G)p.r(U)p.r(A)p.r(U)p.r(T)p.r(T)}|RNA2{r(A)p.m(U)p.r(A)p.r(C)p.r(U)p.r(U)p.r(G)p.r(U)p.r(U)p.r(C)p.r(G)p.r(G)p.r(G)p.r(A)p.r(U)p.r(C)p.r(G)p.r(C)p.r(U)p.r(T)p.r(T)}$$$RNA1{StrandType:ss}|RNA2{StrandType:as}$”, “RNA1{m(A)p.r(G)p.m(A)p.r(A)p.m(A)p.r(C)p.m(G)p.r(C)p.m(A)p.r(G)p.m(U)p.r(A)p.m(A)p.r(U)p.m(C)p.r(C)p.m(G)p.r(G)p.m(A)p.r(T)p.r(T)}|RNA2{r(U)p.r(C)p.r(C)p.m(G)p.m(G)p.r(A)p.r(U)p.r(U)p.r(A)p.r(C)p.r(U)p.m(G)p.r(C)p.m(G)p.r(U)p.r(U)p.r(U)p.r(C)p.r(U)p.r(T)p.r(T)}$$$RNA1{StrandType:ss}|RNA2{StrandType:as}$” is lower in target mRNA knockdown: 85% for the first, 36% for the second.

Going from “RNA1{m(G)p.r(G)p.m(A)p.r(G)p.m(C)p.r(U)p.m(A)p.r(G)p.m(A)p.r(C)p.m(G)p.r(G)p.m(G)p.r(U)p.m(A)p.r(C)p.m(G)p.r(A)p.r(G)p.r(T)p.r(T)}|RNA2{r(C)p.r(U)p.r(C)p.r(G)p.r(U)p.r(A)p.r(C)p.r(C)p.r(C)p.r(G)p.r(U)p.r(C)p.r(U)p.r(A)p.r(G)p.r(C)p.r(U)p.r(C)p.r(C)p.r(T)p.r(T)}$$$RNA1{StrandType:ss}|RNA2{StrandType:as}$” to “RNA1{r(C)p.[fl2r](U)p.r(G)p.r(A)p.r(C)p.r(C)p.r(G)p.r(G)p.r(A)p.r(A)p.r(G)p.r(C)p.r(G)p.r(C)p.r(U)p.r(U)p.r(A)p.r(A)p.r(A)p.r(T)p.r(T)}|RNA2{r(U)p.r(U)p.[fl2r](U)p.r(A)p.r(A)p.r(G)p.r(C)p.r(G)p.r(C)p.r(U)p.r(U)p.r(C)p.r(C)p.r(G)p.r(G)p.r(U)p.r(C)p.r(A)p.r(G)p.r(T)p.r(T)}$$$RNA1{StrandType:ss}|RNA2{StrandType:as}$”, the target mRNA knockdown rises from 75% to 87%.
